Laboratory results taken from US20250290117A1, “MOLECULAR PHENOTYPIC ANTIMICROBIAL SUSCEPTIBILITY TESTING” (priority 2024, published 2025).

Columns and labels:
E. coli = experiment: Molecular phenotypic antimicrobial susceptibility test with direct PCR (no extraction DNA purification step); assay type: cell-based, Escherichia coli; settings: specimen with <10,000 cells/mL, direct PCR after 16 hours of incubation
Procedure: Detection of Molecular Phenotypic Antimicrobial Susceptibility. Disclosed herein are the methods for the detection of phenotypic antimicrobial susceptibility via molecular methods. The present invention describes how a specimen 100 with a known microbial load is incubated and then exposed to a panel of antimicrobial agents to determine sensitivity (prevention of growth) or resistance (allowance of growth) to the specific antimicrobial agents tested utilizing molecular methods.
Sample Collection. Specimens 100 are collected from patients using sterile collection processes that are employed in routine clinical care. Specimens are transported to the testing facility in boric acid preservative. Specimens 100 are subsequently divided into a first sample 104 and a second sample 108.
Preparation of the Specimens for Testing. The specimens 100 are put through a pathogen identification process using PCR technology (e.g., using the first sample 104). The process for pathogen isolation includes steps of harvesting the pathogen (e.g., via centrifugation), isolating pathogen DNA via a DNA isolation and/or purification kit, and performing PCR on the pathogen DNA via PCR components (e.g., primers, enzymes, buffers) as would be known to the skilled artisan. Simultaneously, an additional aliquot of the same specimen (e.g., the second sample 108) is placed with liquid culture media and incubated for 4-6 hours. This aliquot is used for antimicrobial susceptibility testing if indicated based on the pathogen detection results. After pathogen identification is completed and if more than 10,000 cells/mL of bacteria (e.g., eligible bacteria) are detected in the source specimen, the second sample 108 then enters the antimicrobial susceptibility phase of testing. Specimens 100 with lower pathogen loads could also be utilized in the antibiotic susceptibility phase of testing with or without a longer incubation period.
Preparation of Antimicrobial Susceptibility Testing Plates. Antimicrobial solutions are prepared at known concentrations. The specific antimicrobials and their concentrations are selected based on the pathogen of interest and the described antimicrobial resistance breakpoints for that specimen pathogen and antimicrobial combination. These antimicrobials have been selected based on those commonly utilized by healthcare providers in routine clinical care for the specific type of suspected infection. The number and types of antimicrobials utilized can be customized based on the infection source, pathogen detected, patient-specific factors such as allergies or other health conditions (e.g., chronic kidney disease or concurrent medication use), or healthcare provider preferences such as antimicrobial availability or cost.
The antimicrobial solutions are prepared in liquid culture media (such as Muller Hinton Broth) to achieve the desired antimicrobial concentration and are then stored at −80° C. until use. For a given specimen, each antimicrobial is tested at a single or multiple antimicrobial concentration(s) which is its established breakpoints for sensitivity. The antimicrobial solutions are prepared and plated out for each specific pathogen. This allows ease of use on the day of testing after defrosting the plate 112. Table 1, which illustrates the results of molecular phenotypic antimicrobial susceptibility testing when more than one organism is present in the source specimen, provides an example of an antimicrobial plate 112 prepared for this purpose. Of note, control wells containing only culture media are present on all plates 112. This allows for evaluation of pathogen load when no antimicrobial is present.
Specimen Exposure to Antimicrobial Agents. The 1 mL aliquot of the specimen 100 previously mixed with culture media and incubated is obtained. Using optical density measurements as a guide, the specimen 100 is diluted to 0.5 McFarland. […]

pathogen of the specimen [1] = experiment: Traditional culture-based antimicrobial susceptibility test (comparison of Table 7); assay type: cell-based; settings: E. coli isolate 1189
Procedure: Table 7 illustrates the results of an example antimicrobial agent susceptibility test of the current application versus a traditional culture-based antimicrobial agent susceptibility test at multiple incubation timepoints, in accordance with one or more embodiments of the disclosure. These specimens were tested with direct PCR (e.g., no extraction DNA purification step prior to PCR). […] Result Reporting to Healthcare Providers. The results from the antimicrobial exposure are reported to the ordering healthcare provider. This information can be utilized by the healthcare provider when selecting an antimicrobial regimen for their individual patient based on these individual specimen results and patient specific factors. […] The current standard of care for antimicrobial susceptibility testing involves the growth, isolation, and exposure of pathogens to antimicrobials. This traditional culture and sensitivity process can take multiple days to obtain results, limiting the ability of healthcare providers to receive timely results to make actionable changes in patient care or management. Healthcare providers desire a method to obtain antimicrobial susceptibility results with quicker turn-around-time. This application discloses a molecular-based phenotypic antimicrobial susceptibility method which involves pathogen exposure to a panel of antimicrobial agents at their specified minimum inhibitory concentration breakpoints for sensitivity. This method allows for more timely antimicrobial susceptibility results.

pathogen of the specimen [2] = experiment: Molecular phenotypic antimicrobial susceptibility test with direct PCR at various incubation timepoints (Table 7); assay type: cell-based
Procedure: Detection of Molecular Phenotypic Antimicrobial Susceptibility. Disclosed herein are the methods for the detection of phenotypic antimicrobial susceptibility via molecular methods. The present invention describes how a specimen 100 with a known microbial load is incubated and then exposed to a panel of antimicrobial agents to determine sensitivity (prevention of growth) or resistance (allowance of growth) to the specific antimicrobial agents tested utilizing molecular methods. Sample Collection. Specimens 100 are collected from patients using sterile collection processes that are employed in routine clinical care. Specimens are transported to the testing facility in boric acid preservative. […] The process for pathogen isolation includes steps of harvesting the pathogen (e.g., via centrifugation), isolating pathogen DNA via a DNA isolation and/or purification kit, and performing PCR on the pathogen DNA via PCR components (e.g., primers, enzymes, buffers) as would be known to the skilled artisan. […] This aliquot is used for antimicrobial susceptibility testing if indicated based on the pathogen detection results. […] Specimens 100 with lower pathogen loads could also be utilized in the antibiotic susceptibility phase of testing with or without a longer incubation period. […] Antimicrobial solutions are prepared at known concentrations. The specific antimicrobials and their concentrations are selected based on the pathogen of interest and the described antimicrobial resistance breakpoints for that specimen pathogen and antimicrobial combination. These antimicrobials have been selected based on those commonly utilized by healthcare providers in routine clinical care for the specific type of suspected infection. The number and types of antimicrobials utilized can be customized based on the infection source, pathogen detected, patient-specific factors such as allergies or other health conditions (e.g., chronic kidney disease or concurrent medication use), or healthcare provider preferences such as antimicrobial availability or cost. The antimicrobial solutions are prepared in liquid culture media (such as Muller Hinton Broth) to achieve the desired antimicrobial concentration and are then stored at −80° C. until use. For a given specimen, each antimicrobial is tested at a single or multiple antimicrobial concentration(s) which is its established breakpoints for sensitivity. The antimicrobial solutions are prepared and plated out for each specific pathogen. […] This allows for evaluation of pathogen load when no antimicrobial is present. Specimen Exposure to Antimicrobial Agents. The 1 mL aliquot of the specimen 100 previously mixed with culture media and incubated is obtained. Using optical density measurements as a guide, the specimen 100 is diluted to 0.5 McFarland. […] Antimicrobial exposure plates are typically placed into an incubator for 12-16 hours. […] Nucleic Acid Amplification of Antimicrobial Agent Exposed Pathogens. The antimicrobial exposure plate is removed after the period of incubation. The specimen then undergoes a purification or lysis step. For example, the specimen may undergo a purification step (e.g., magnetic bead-based or other separation protocol to isolate genetic material). In another example, the specimen may undergo a cell lysis step. For example, buffer (e.g., lysis buffer) may be added and incubated in the thermal cycler for preparation for direct PCR. Next, the specimen may undergo a polymerase chain reaction (PCR) testing protocol, whereby a semi-quantitative PCR method is utilized. This may be completed either with or without a specific extraction protocol step. The pathogens can be individually targeted and detected, or a universal genetic sequence can be utilized to detect the antimicrobial susceptibility of the specimen as a whole. The control wells are utilized as a threshold for determining antimicrobial sensitivity or resistance. […] Antimicrobial Susceptibility Result Interpretation.

Molecule	Molecular Antimicrobial Susceptibility Result (E. coli; E. coli #1 - WDCM 00090 - 6.2×E3)	Ct at Sensitive Breakpoint (E. coli; E. coli #1 - WDCM 00090 - 6.2×E3, Ct at control 13.787)	Molecular Antimicrobial Susceptibility Result (E. coli; E. coli #2 - WDCM 00090 - 6.2×E3)	Ct at Sensitive Breakpoint (E. coli; E. coli #2 - WDCM 00090 - 6.2×E3, Ct at control 13.46)	Traditional Culture Result (pathogen of the specimen [1])	Molecular Antimicrobial Susceptibility Result (pathogen of the specimen [2]; E. coli isolate 1189, antibiotic incubation time 4 hours)	Ct at Sensitive Breakpoint (pathogen of the specimen [2]; E. coli isolate 1189, antibiotic incubation time 4 hours, control average Ct […])	Molecular Antimicrobial Susceptibility Result (pathogen of the specimen [2]; E. coli isolate 1189, antibiotic incubation time 6 hours)	Ct at Sensitive Breakpoint (pathogen of the specimen [2]; E. coli isolate 1189, antibiotic incubation time 6 hours, control average Ct 16.992)	Molecular Antimicrobial Susceptibility Result (pathogen of the specimen [2]; E. coli isolate 1189, antibiotic incubation time 8 hours)	Ct at Sensitive Breakpoint (pathogen of the specimen [2]; E. coli isolate 1189, antibiotic incubation time 8 hours, control average Ct […])	Molecular Antimicrobial Susceptibility Result (pathogen of the specimen [2]; E. coli isolate 1189, antibiotic incubation time 10 hours)	Ct at Sensitive Breakpoint (pathogen of the specimen [2]; E. coli isolate 1189, antibiotic incubation time 10 hours, control average Ct 15.995)	Molecular Antimicrobial Susceptibility Result (pathogen of the specimen [2]; E. coli isolate 1189, antibiotic incubation time 14 hours)	Ct at Sensitive Breakpoint (pathogen of the specimen [2]; E. coli isolate 1189, antibiotic incubation time 14 hours, control average Ct 15.826)	Molecular Antimicrobial Susceptibility Result (pathogen of the specimen [2]; E. coli isolate 1189, antibiotic incubation time 16 hours)	Ct at Sensitive Breakpoint (pathogen of the specimen [2]; E. coli isolate 1189, antibiotic incubation time 16 hours, control average Ct 14.880)
C[C@H]1c2cccc(O)c2C(=O)C2=C(O)[C@]3(O)C(=O)C(C(N)=O)=C(O)[C@@H](N(C)C)[C@@H]3[C@@H](O)[C@@H]21 [Doxycycline]	Sensitive (Antimicrobial wells with pathogen load detected below the control wells (typically >2 cycle thresholds later) may be reported as Sensitive)	25.83	Sensitive (Antimicrobial wells with pathogen load detected below the control wells (typically >2 cycle thresholds later) may be reported as Sensitive)	27.02													
Amoxicillin/Clavulanate					Resistant	Resistant	16.799	Resistant	17.105	Resistant	17.430	Resistant	15.606	Resistant	14.226	Resistant	14.825
